Where two headings read alike, the source gives them in different places.
What was measured:
ORL1 (NOP) receptor = ORL1 (NOP) receptor (Homo sapiens, UniProt P41146); experiment: in vitro pharmacology at ORL1 receptor; assay type: biochemical
[1] = target: cholinergic muscarinic receptor 3 (Homo sapiens, UniProt P20309); experiment: in vitro antagonistic activity at muscarinic receptor 3; assay type: biochemical
Kappa (KOP) receptor = Kappa (KOP) receptor (Homo sapiens, UniProt P41145); assay type: biochemical
Kappa (KOP) receptor, sequence (P41145 whole entry): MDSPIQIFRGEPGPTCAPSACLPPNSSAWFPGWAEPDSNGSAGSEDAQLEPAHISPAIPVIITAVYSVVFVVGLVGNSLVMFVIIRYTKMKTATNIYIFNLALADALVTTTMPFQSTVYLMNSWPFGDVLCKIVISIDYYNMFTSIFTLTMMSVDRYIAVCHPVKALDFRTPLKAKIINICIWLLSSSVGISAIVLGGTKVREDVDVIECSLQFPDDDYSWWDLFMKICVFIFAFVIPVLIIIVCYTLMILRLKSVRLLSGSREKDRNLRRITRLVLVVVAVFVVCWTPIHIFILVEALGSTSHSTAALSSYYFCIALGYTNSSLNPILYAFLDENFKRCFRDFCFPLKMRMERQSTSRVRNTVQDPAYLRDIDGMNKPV

serotonin receptor 1B = serotonin receptor 1B (Homo sapiens, UniProt P28222); experiment: in vitro antagonistic activity at serotonin receptor 1B; assay type: biochemical
serotonin receptor 1B, sequence (P28222 whole entry): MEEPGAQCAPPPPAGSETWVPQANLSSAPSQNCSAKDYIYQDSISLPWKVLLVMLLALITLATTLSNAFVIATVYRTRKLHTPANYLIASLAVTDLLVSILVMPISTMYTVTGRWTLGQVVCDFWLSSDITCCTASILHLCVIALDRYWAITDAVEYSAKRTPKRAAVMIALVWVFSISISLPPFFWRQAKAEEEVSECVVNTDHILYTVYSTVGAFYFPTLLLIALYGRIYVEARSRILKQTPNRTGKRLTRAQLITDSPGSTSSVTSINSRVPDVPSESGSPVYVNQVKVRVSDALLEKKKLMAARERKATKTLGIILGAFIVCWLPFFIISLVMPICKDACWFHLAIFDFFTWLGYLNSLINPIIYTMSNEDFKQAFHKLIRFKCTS

[2] = target: T1, cholinergic muscarinic receptor 4 (Homo sapiens, UniProt P08173); experiment: in vitro antagonistic activity at muscarinic receptor 4; assay type: biochemical
T1 sequence (P08173 1-479): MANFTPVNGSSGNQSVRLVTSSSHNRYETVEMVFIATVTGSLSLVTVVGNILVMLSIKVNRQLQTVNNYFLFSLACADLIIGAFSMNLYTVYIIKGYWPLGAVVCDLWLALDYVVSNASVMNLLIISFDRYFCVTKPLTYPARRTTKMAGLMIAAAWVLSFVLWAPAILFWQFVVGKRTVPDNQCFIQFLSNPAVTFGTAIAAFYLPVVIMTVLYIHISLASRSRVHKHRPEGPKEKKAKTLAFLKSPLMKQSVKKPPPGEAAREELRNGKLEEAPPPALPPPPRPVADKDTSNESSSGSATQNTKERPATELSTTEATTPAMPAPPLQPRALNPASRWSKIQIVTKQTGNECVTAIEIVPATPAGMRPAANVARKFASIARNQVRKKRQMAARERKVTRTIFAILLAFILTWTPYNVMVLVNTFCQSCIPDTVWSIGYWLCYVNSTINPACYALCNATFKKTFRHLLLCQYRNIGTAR

dopamine D4 receptor = target: T2, dopamine D4 receptor (Homo sapiens, UniProt P21917); experiment: in vitro antagonistic activity at dopamine D4; assay type: biochemical
T2 sequence (P21917 1-419): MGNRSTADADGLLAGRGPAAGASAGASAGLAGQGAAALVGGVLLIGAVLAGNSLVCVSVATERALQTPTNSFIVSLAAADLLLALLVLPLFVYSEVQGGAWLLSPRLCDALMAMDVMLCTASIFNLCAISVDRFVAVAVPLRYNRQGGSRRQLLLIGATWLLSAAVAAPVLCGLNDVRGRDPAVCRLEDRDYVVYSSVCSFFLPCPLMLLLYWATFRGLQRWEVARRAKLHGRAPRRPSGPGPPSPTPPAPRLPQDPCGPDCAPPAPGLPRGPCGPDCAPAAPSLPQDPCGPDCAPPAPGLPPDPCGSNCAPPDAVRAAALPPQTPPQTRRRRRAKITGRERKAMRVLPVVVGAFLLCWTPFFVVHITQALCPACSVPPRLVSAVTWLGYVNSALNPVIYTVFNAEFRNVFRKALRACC

[3] = target: T3, cholinergic muscarinic receptor 5 (Homo sapiens, UniProt P08912); experiment: in vitro antagonistic activity at muscarinic receptor 5; assay type: biochemical
T3 sequence (P08912 1-532): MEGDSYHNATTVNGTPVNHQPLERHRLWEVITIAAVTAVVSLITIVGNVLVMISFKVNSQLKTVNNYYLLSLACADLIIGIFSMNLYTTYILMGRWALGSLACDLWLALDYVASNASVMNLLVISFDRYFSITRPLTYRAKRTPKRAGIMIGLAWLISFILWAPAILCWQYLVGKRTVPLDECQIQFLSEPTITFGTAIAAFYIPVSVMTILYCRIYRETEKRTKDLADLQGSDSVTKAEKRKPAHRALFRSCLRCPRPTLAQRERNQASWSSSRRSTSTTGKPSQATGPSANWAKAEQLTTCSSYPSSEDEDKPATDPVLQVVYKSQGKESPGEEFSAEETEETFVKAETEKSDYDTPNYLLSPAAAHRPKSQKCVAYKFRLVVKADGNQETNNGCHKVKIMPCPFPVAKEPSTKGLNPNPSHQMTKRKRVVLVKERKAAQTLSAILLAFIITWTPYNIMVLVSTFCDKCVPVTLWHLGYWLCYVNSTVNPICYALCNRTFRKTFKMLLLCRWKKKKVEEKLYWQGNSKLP

[4] = target: T4, adrenergic receptor Alpha 2C (Homo sapiens, UniProt P18825); experiment: in vitro antagonistic activity at adrenergic Alpha 2C; assay type: biochemical
T4 sequence (P18825 1-462): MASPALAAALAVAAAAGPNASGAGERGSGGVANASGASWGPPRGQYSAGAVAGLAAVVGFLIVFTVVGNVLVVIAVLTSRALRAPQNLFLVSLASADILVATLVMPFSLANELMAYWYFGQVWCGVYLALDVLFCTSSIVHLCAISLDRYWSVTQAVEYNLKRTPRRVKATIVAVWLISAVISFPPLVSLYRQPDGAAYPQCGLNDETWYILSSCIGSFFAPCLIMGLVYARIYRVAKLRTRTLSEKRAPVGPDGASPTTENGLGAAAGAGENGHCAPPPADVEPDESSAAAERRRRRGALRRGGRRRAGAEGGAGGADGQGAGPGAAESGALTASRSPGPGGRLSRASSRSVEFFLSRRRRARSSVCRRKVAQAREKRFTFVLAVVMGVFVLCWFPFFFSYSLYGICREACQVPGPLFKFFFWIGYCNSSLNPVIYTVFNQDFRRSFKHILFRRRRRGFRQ

[5] = target: T5, adrenergic receptor Alpha 1B (Homo sapiens, UniProt P35368); experiment: in vitro antagonistic activity at adrenergic Alpha 1B; assay type: biochemical
T5 sequence (P35368 1-520): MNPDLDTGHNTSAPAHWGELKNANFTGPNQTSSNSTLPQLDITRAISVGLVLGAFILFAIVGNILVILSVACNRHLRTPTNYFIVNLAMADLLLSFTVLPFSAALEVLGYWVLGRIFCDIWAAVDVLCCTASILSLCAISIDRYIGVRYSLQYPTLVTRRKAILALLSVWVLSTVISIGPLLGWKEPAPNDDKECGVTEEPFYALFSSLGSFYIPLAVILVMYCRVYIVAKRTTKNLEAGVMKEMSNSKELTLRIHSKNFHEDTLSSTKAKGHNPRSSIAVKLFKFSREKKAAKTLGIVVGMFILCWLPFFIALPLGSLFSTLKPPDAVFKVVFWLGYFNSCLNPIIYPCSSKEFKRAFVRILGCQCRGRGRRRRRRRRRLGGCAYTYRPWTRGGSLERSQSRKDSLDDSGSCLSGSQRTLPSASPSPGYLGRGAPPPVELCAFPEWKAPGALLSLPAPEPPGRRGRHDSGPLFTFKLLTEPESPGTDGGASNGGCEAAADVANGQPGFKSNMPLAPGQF

serotonin receptor 1A = target: T6, serotonin receptor 1A (Homo sapiens, UniProt P08908); experiment: in vitro antagonistic activity at serotonin receptor 1A; assay type: biochemical
T6 sequence (P08908 1-422): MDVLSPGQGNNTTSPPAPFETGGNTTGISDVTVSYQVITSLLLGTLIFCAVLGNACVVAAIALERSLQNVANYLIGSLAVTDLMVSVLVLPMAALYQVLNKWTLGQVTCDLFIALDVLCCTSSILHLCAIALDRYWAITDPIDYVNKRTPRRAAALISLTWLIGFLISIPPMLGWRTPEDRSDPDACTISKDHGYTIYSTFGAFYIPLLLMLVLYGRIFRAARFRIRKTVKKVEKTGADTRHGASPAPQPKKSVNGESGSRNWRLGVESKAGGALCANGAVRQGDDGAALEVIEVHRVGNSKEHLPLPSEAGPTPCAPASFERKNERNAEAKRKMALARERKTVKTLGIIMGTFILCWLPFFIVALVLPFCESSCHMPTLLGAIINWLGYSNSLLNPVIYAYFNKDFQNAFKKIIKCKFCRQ

Mu (MOP) receptor = Mu (MOP) receptor (Homo sapiens, UniProt P35372); assay type: biochemical
Mu (MOP) receptor, sequence (P35372 whole entry): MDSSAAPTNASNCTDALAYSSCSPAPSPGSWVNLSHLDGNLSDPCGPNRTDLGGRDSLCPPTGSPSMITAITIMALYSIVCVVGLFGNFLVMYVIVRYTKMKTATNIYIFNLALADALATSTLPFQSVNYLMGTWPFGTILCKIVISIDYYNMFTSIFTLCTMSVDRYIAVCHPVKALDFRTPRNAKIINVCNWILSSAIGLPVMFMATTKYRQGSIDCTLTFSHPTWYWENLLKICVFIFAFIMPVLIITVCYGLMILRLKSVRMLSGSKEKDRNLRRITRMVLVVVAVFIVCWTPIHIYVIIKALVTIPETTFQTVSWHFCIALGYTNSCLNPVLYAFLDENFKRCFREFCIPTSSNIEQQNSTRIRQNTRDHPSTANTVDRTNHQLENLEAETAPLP

[6] = target: T7, adrenergic receptor Alpha 2B (Homo sapiens, UniProt P18089); experiment: in vitro antagonistic activity at adrenergic Alpha 2B; assay type: biochemical
T7 sequence (P18089 1-450): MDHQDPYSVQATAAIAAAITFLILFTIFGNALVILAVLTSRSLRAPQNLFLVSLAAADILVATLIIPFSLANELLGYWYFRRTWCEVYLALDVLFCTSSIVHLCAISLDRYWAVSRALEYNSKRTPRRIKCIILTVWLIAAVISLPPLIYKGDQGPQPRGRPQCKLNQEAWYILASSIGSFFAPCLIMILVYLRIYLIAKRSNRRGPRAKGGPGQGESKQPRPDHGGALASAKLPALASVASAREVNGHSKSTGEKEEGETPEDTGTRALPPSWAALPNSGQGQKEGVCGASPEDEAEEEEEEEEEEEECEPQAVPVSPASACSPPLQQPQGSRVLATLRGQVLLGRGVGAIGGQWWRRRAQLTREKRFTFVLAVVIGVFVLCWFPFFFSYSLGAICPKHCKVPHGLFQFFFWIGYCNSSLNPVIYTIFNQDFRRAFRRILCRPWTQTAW

histamine H1 receptor = histamine H1 receptor (Homo sapiens, UniProt P35367); experiment: in vitro antagonistic activity at histamine H1; assay type: biochemical
histamine H1 receptor, sequence (P35367 whole entry, species assumed): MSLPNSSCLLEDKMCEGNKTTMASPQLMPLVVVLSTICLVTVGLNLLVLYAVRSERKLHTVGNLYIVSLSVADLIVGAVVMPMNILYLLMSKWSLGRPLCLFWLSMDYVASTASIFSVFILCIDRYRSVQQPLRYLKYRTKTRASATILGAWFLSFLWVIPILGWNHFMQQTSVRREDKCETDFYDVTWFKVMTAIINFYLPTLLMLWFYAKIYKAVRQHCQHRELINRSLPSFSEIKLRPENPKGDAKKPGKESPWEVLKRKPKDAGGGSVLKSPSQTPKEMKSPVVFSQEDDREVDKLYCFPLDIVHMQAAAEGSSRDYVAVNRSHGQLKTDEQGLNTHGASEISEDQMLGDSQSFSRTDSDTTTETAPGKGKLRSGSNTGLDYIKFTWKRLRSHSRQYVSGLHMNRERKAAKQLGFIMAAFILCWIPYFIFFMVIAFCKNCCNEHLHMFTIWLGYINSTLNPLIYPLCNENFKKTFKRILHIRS

[7] = target: T8, cholinergic muscarinic receptor 1 (Homo sapiens, UniProt P11229); experiment: in vitro antagonistic activity at muscarinic receptor 1; assay type: biochemical
T8 sequence (P11229 1-460): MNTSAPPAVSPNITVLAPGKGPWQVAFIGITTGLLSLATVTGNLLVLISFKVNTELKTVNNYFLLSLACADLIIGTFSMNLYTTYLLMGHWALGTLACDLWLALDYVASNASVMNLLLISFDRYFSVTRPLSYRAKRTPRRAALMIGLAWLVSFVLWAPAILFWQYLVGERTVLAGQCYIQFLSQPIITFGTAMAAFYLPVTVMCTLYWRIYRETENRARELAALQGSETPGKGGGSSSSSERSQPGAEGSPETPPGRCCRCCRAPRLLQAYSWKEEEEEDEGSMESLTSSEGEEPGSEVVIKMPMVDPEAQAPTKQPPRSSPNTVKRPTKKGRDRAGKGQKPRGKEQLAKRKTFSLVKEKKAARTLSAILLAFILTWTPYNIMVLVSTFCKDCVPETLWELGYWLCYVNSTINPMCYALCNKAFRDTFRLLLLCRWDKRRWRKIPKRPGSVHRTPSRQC

Sigma opiate sites = experiment: in vitro affinity at sigma opiate sites; assay type: binding

ORL1 (NOP) receptor, sequence (P41146 whole entry): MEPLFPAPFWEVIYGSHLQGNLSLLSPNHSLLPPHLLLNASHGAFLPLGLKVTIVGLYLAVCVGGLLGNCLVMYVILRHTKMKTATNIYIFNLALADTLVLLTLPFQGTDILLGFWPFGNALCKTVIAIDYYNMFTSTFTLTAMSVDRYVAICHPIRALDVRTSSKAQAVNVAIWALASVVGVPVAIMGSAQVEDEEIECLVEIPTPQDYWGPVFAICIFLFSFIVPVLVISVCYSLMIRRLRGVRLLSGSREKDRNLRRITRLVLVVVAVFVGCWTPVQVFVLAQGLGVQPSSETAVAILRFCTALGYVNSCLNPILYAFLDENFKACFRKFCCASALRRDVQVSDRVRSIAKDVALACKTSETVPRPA
cholinergic muscarinic receptor 3, sequence (P20309 whole entry): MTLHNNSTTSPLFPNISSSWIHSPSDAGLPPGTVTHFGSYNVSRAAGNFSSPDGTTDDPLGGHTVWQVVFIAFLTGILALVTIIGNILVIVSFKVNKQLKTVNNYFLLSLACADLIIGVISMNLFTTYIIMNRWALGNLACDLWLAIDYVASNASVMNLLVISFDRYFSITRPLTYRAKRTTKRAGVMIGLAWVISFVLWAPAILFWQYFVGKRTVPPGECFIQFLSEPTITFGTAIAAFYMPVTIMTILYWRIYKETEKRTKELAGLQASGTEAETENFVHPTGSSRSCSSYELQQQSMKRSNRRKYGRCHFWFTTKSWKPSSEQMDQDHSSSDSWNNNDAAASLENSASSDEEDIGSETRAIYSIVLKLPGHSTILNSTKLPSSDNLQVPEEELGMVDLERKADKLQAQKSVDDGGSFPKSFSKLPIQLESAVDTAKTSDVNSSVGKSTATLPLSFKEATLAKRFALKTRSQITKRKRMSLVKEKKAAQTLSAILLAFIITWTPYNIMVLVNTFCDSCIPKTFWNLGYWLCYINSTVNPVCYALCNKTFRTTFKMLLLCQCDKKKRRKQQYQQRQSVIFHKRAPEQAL

Compound	Receptor ORL1 (NOP): mode of action (ORL1 (NOP) receptor)	Receptor ORL1 (NOP): mode of action (ORL1 (NOP) receptor; listed as compound 1)	activity at cholinergic muscarinic receptor 3 [1]	Receptor Kappa (KOP): mode of action (Kappa (KOP) receptor)	activity at serotonin receptor 1B (serotonin receptor 1B)	activity at cholinergic muscarinic receptor 4 [2]	activity at dopamine D4 receptor (dopamine D4 receptor)	activity at cholinergic muscarinic receptor 5 [3]	activity at adrenergic receptor Alpha 2C [4]	activity at adrenergic receptor Alpha 1B [5]	activity at serotonin receptor 1A (serotonin receptor 1A)	Receptor Mu (MOP): mode of action (Mu (MOP) receptor)	activity at adrenergic receptor Alpha 2B [6]	activity at histamine H1 receptor (histamine H1 receptor)	activity at cholinergic muscarinic receptor 1 [7]	Receptor Sigma: affinity (Sigma opiate sites; listed as compound 1)	Receptor Sigma: affinity (Sigma opiate sites)
CCC(=O)NC1CC(C)N(CCc2ccccc2)CC1C (stereo not drawn) [Compound 1, 1-(2-phenylethyl)2,5-dimethyl-4-propionilaminopiperidine]	Antagonist	antagonist	antagonistic activity	Antagonist	antagonistic activity	antagonistic activity	antagonistic activity	antagonistic activity	antagonistic activity	antagonistic activity	antagonistic activity	partial agonist	antagonistic activity	antagonistic activity	antagonistic activity	activity	–
C=CCN1CC[C@]23c4c5ccc(O)c4O[C@H]2C(=O)CC[C@@]3(O)[C@H]1C5 [Naloxone]	–	–	–	–	–	–	–	–	–	–	–	–	–	–	–	–	Weak
O=C1CC[C@@]2(O)[C@H]3Cc4ccc(O)c5c4[C@@]2(CCN3CC2CC2)[C@H]1O5 [Naltrexone]	–	–	–	–	–	–	–	–	–	–	–	–	–	–	–	–	Weak
